Laboratory results from publication PMC4710522, “A Novel Triazolopyridine-Based Spleen Tyrosine Kinase Inhibitor That Arrests Joint Inflammation” (PLoS ONE, 2016).

Legend:
Type in all cases: biochemical
DNAPK_h = target: T1, DNAPK_h (Homo sapiens, UniProt P78527); assay: SelectScreen kinase assay; conditions: 3 µM, KM ATP
T1 construct: purchased Life Technologies (Invitrogen) SelectScreen, Z'-LYTE / Adapta
Method: Syk kinase mode of inhibition studies, including parameters described in Fig 1, were conducted on the LC3000 platform by Caliper Life Sciences (Hopkinton, MA) according to standard protocols developed by the supplier. […] Non-kinase enzyme assays and GPCR, ion channel, and transporter binding assays were run by CEREP (France). Non-GLP manual patch clamp hERG assays were run by ChanTest (Cleveland, Ohio). Vivid® Assay kits (Life Technologies) were used to measure the cytochrome P450 inhibition of the compound against CYP3A, CYP2C9, CYP2C19, CYP2D6, and CYP1A2, as described.
Kinase activity was measured using either the Z’-Lyte® or the Adapta® protocols as part of the SelectScreen™ profiling service offered at Life Technologies (Grand Island, NY). […] Values expressed as percent control (% control) relative to DMSO-only wells (uninhibited, 100%).

PKC-eta_h = target: T2, PKC-eta_h (Homo sapiens, UniProt P24723); assay: SelectScreen kinase assay; conditions: KM ATP, read-out: % control
T2 construct: purchased Life Technologies (Invitrogen) SelectScreen, Z'-LYTE / Adapta

KDR = target: T3, KDR (Homo sapiens, UniProt P35968); assay: KDR HTRF assay; conditions: in-house, mean ± SD
T3 construct: purchased Life Technologies PV3660
Method: CC-509 was prepared at a concentration of 1.5 mM in DMSO followed by 3-fold dilutions in Greiner […] polypropylene plates. A 1:4 dilution of compounds by 8 μL/well transfer from the polypropylene plates to 24 μL/well Assay Buffer (50 mM HEPES pH 7.6, 1 mM DTT, 10 mM MgCl2, 0.01% Triton X-100, 0.01% BSA and 0.1 mM EDTA) in Costar 3573 384 well black plates was then performed. Kinase (13 μL/well of 7.7 ng/ml KDR (Life Technologies, Grand Island, NY PV3660) in Assay Buffer) or Assay Buffer only (background controls) were added to Costar 3573 384-well black plates and compound (2 μL/ well) was added from the 1:4 dilution plate. […] Time resolved fluorescence was read in assay plates on a PerkinElmer EnVision. […] The IC50 value was determined as described in the data fitting section below.
For the TEL-Syk assay, the intensity values for the 700 and 800 channel were exported as text files in ActivityBase (IDBS, Guildford, UK) to derive the ratios that reflect kinase activity. […] For the JAK2 HEL and Ramos NFAT β-lactamase assays, the fluorescence values obtained at 460 nm and 530 nm were exported into ActivityBase to calculate response ratios. […] Evans blue dye extravasation was expressed as mean ± SEM and % inhibition for the test article groups was normalized to the cromolyn positive control. […] Data is expressed as mean ± SEM of each group with n = 6–12. […]

CK1-gamma3_h = target: T4, CK1-gamma3_h (Homo sapiens, UniProt Q9Y6M4); assay: SelectScreen kinase assay; conditions: KM ATP, read-out: % control
T4 construct: purchased Life Technologies (Invitrogen) SelectScreen, Z'-LYTE / Adapta
T4 sequence (Q9Y6M4 whole entry): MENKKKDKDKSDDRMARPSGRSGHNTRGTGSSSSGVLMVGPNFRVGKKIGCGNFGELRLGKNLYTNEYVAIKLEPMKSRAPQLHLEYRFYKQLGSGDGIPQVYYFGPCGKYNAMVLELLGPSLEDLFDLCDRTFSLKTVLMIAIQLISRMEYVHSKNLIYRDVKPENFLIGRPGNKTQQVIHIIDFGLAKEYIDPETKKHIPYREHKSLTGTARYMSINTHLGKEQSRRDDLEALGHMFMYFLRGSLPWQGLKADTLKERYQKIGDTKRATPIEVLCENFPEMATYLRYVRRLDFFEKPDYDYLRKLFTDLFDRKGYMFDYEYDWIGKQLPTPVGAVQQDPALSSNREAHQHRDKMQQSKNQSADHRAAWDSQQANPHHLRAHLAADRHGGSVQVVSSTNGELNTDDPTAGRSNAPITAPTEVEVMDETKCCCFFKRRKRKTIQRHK

T2 sequence (P24723 whole entry): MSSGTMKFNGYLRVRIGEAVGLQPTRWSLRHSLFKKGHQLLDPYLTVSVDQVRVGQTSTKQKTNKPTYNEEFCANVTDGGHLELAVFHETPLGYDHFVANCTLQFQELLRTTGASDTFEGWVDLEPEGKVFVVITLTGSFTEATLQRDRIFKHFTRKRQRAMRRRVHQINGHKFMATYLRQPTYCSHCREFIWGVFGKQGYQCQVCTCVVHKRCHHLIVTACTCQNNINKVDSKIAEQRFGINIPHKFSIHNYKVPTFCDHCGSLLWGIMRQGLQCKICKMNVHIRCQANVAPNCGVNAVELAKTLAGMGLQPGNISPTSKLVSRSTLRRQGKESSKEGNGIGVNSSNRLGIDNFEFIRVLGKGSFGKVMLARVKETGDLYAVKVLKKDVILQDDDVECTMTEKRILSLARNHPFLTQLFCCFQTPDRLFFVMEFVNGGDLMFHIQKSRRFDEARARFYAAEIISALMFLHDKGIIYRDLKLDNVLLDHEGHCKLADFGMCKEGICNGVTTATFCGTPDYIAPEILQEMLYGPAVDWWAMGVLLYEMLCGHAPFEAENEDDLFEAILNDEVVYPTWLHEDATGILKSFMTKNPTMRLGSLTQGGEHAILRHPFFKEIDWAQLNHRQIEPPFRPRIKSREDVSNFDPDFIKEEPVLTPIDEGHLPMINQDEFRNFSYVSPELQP
T3 sequence (P35968 20-1356): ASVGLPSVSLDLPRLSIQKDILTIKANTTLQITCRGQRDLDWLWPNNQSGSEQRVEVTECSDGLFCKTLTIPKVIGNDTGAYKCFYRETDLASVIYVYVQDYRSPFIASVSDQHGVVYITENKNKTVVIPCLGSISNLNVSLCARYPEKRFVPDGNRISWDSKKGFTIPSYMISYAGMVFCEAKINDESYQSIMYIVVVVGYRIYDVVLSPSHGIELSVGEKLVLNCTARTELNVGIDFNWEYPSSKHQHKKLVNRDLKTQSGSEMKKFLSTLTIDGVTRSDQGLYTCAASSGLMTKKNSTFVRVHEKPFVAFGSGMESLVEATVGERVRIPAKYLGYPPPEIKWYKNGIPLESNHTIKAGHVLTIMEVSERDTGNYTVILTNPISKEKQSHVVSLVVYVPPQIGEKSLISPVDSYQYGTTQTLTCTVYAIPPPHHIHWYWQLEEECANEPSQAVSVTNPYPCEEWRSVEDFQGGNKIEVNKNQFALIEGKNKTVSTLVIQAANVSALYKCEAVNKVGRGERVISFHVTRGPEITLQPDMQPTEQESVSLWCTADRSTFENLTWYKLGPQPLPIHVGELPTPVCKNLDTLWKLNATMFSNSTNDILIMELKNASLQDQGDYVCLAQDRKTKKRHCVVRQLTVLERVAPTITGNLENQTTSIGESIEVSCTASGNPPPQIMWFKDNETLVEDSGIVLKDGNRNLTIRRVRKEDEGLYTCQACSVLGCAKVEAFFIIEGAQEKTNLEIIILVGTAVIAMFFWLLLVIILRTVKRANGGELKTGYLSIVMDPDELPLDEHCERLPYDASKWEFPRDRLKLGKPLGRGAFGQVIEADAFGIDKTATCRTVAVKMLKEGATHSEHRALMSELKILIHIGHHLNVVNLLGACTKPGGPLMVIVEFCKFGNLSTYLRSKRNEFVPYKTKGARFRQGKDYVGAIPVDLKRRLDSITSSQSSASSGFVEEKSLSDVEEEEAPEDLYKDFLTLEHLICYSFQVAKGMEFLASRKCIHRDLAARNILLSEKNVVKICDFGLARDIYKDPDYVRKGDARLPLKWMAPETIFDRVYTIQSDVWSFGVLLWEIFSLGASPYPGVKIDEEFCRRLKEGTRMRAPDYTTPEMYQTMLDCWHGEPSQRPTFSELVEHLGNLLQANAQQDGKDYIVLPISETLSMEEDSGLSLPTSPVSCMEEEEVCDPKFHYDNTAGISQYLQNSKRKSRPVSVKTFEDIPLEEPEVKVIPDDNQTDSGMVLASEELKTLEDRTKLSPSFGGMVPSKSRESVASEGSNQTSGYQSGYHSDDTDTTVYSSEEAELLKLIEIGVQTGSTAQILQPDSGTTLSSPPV

| Compound | % control (DNAPK_h) [%] | remaining activity at 3 µM (PKC-eta_h) [%] | IC50 (KDR) [nM] | remaining activity at 3 µM (CK1-gamma3_h) [%] |
| --- | --- | --- | --- | --- |
| COc1cc(Nc2ncc(F)c(Nc3ccc4c(n3)NC(=O)C(C)(C)O4)n2)cc(OC)c1OC [R406, reference compound] | 87 | – | – | – |
| c1cc(CC2CCOCC2)n2nc(Nc3ccc4c(NC5CCOCC5)n[nH]c4c3)nc2c1 [CC-509, [3-(2H-3,4,5,6-tetrahydropyran-4-ylamino)(1H-indazol-6-yl)][5-(2H-3,4,5,6-tetrahydropyran-4-ylmethyl)(2H-1,2,4-triazolo[1,5-a]pyridin-2-yl)]amine] | – | 102 | 150 ± 30 | 50 |
